In PubChem BioAssay (NCI):
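Growth conditions: 96-well plates. Treatment: test compound, 48 hours, 5 concentrations. Analysis: linear interpolation between bracketing concentrations; unreached endpoints set to highest concentration. At the GI50, growth is halved. TGI: concentration producing complete growth inhibition.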

Columns and labels:
Assay in all cases: growth of human tumour cells (NCI), 48 h
OVCAR-3 ovarian = tested on: OVCAR-3 ovarian
NCI-H460 lung = tested on: NCI-H460 lung
UO-31 renal = tested on: UO-31 renal
SF-268 CNS = tested on: SF-268 CNS
KM12 colon = tested on: KM12 colon
CAKI-1 renal = tested on: CAKI-1 renal
MDA-MB-435 = tested on: MDA-MB-435
SN12C renal = tested on: SN12C renal
SK-MEL-2 melanoma = tested on: SK-MEL-2 melanoma
ACHN renal = tested on: ACHN renal
A549 NSCLC = tested on: A549 NSCLC
A498 renal = tested on: A498 renal
UACC-62 melanoma = tested on: UACC-62 melanoma
U251 CNS = tested on: U251 CNS
OVCAR-4 ovarian = tested on: OVCAR-4 ovarian
COLO 205 colon = tested on: COLO 205 colon
MCF7 breast = tested on: MCF7 breast
SNB-75 CNS = tested on: SNB-75 CNS
NCI-H226 lung = tested on: NCI-H226 lung
NCI-H23 lung = tested on: NCI-H23 lung
HOP-62 NSCLC = tested on: HOP-62 NSCLC
OVCAR-5 ovarian = tested on: OVCAR-5 ovarian
SK-MEL-5 melanoma = tested on: SK-MEL-5 melanoma
MALME-3M melanoma = tested on: MALME-3M melanoma
SW-620 colon = tested on: SW-620 colon
SR leukemia = tested on: SR leukemia
RXF 393 renal = tested on: RXF 393 renal
HCT-15 colon = tested on: HCT-15 colon
SF-295 CNS = tested on: SF-295 CNS
SNB-19 CNS = tested on: SNB-19 CNS
NCI-H522 lung = tested on: NCI-H522 lung
NCI/ADR-RES ovarian = tested on: NCI/ADR-RES ovarian
UACC-257 melanoma = tested on: UACC-257 melanoma
DU-145 prostate = tested on: DU-145 prostate
786-0 renal = tested on: 786-0 renal
HT29 colon = tested on: HT29 colon
PC-3 prostate = tested on: PC-3 prostate
HCT-116 colon = tested on: HCT-116 colon
T-47D breast = tested on: T-47D breast
MOLT-4 leukemia = tested on: MOLT-4 leukemia
HOP-92 NSCLC = tested on: HOP-92 NSCLC
LOX IMVI melanoma = tested on: LOX IMVI melanoma
HL-60(TB) leukemia = tested on: HL-60(TB) leukemia
IGROV1 ovarian = tested on: IGROV1 ovarian
K-562 leukemia = tested on: K-562 leukemia
HS 578T breast = tested on: HS 578T breast
SK-OV-3 ovarian = tested on: SK-OV-3 ovarian
OVCAR-8 ovarian = tested on: OVCAR-8 ovarian
SF-539 CNS = tested on: SF-539 CNS
CCRF-CEM leukemia = tested on: CCRF-CEM leukemia
MDA-MB-231 breast = tested on: MDA-MB-231 breast
RPMI-8226 leukemia = tested on: RPMI-8226 leukemia
M14 melanoma = tested on: M14 melanoma
SK-MEL-28 melanoma = tested on: SK-MEL-28 melanoma
HCC-2998 colon = tested on: HCC-2998 colon
TK-10 renal = tested on: TK-10 renal
BT-549 breast = tested on: BT-549 breast

CCOC(=O)Nc1nc2c(C)cccc2s1
GI50 (OVCAR-3 ovarian): 41.8 µM | TGI (OVCAR-3 ovarian): > 100 µM | GI50 (NCI-H460 lung): 70.8 µM | TGI (NCI-H460 lung): > 100 µM | GI50 (UO-31 renal): 33.5 µM | TGI (UO-31 renal): > 100 µM | GI50 (SF-268 CNS): 55.3 µM | TGI (SF-268 CNS): > 100 µM | GI50 (KM12 colon): 56.8 µM | TGI (KM12 colon): > 100 µM | GI50 (CAKI-1 renal): 45.7 µM | TGI (CAKI-1 renal): > 100 µM | GI50 (MDA-MB-435): 48.9 µM | TGI (MDA-MB-435): > 100 µM | GI50 (SN12C renal): 44.7 µM | TGI (SN12C renal): > 100 µM | GI50 (SK-MEL-2 melanoma): 85.8 µM | TGI (SK-MEL-2 melanoma): > 100 µM | GI50 (ACHN renal): 74.6 µM | TGI (ACHN renal): > 100 µM | GI50 (A549 NSCLC): 43.9 µM | TGI (A549 NSCLC): > 100 µM | GI50 (A498 renal): 11.7 µM | TGI (A498 renal): 54.8 µM | GI50 (UACC-62 melanoma): 36 µM | TGI (UACC-62 melanoma): > 100 µM | GI50 (U251 CNS): 77.5 µM | TGI (U251 CNS): > 100 µM | GI50 (OVCAR-4 ovarian): 43.2 µM | TGI (OVCAR-4 ovarian): > 100 µM | GI50 (COLO 205 colon): > 100 µM | TGI (COLO 205 colon): > 100 µM | GI50 (MCF7 breast): 29.2 µM | TGI (MCF7 breast): > 100 µM | GI50 (SNB-75 CNS): 30.9 µM | TGI (SNB-75 CNS): > 100 µM | GI50 (NCI-H226 lung): > 100 µM | TGI (NCI-H226 lung): > 100 µM | GI50 (NCI-H23 lung): 38.8 µM | TGI (NCI-H23 lung): > 100 µM | GI50 (HOP-62 NSCLC): > 100 µM | TGI (HOP-62 NSCLC): > 100 µM | GI50 (OVCAR-5 ovarian): 66.8 µM | TGI (OVCAR-5 ovarian): > 100 µM | GI50 (SK-MEL-5 melanoma): 28 µM | TGI (SK-MEL-5 melanoma): 91.5 µM | GI50 (MALME-3M melanoma): 56.3 µM | TGI (MALME-3M melanoma): > 100 µM | GI50 (SW-620 colon): 64.7 µM | TGI (SW-620 colon): > 100 µM | GI50 (SR leukemia): 73.3 µM | TGI (SR leukemia): > 100 µM | GI50 (RXF 393 renal): > 100 µM | TGI (RXF 393 renal): > 100 µM | GI50 (HCT-15 colon): 44.3 µM | TGI (HCT-15 colon): > 100 µM | GI50 (SF-295 CNS): 27.2 µM | TGI (SF-295 CNS): > 100 µM | GI50 (SNB-19 CNS): > 100 µM | TGI (SNB-19 CNS): > 100 µM | GI50 (NCI-H522 lung): 47.8 µM | TGI (NCI-H522 lung): > 100 µM | GI50 (NCI/ADR-RES ovarian): 38.9 µM | TGI (NCI/ADR-RES ovarian): > 100 µM | GI50 (UACC-257 melanoma): 39.8 µM | TGI (UACC-257 melanoma): > 100 µM | GI50 (DU-145 prostate): 51.1 µM | TGI (DU-145 prostate): > 100 µM | GI50 (786-0 renal): > 100 µM | TGI (786-0 renal): > 100 µM | GI50 (HT29 colon): 46.8 µM | TGI (HT29 colon): > 100 µM | GI50 (PC-3 prostate): 48.9 µM | TGI (PC-3 prostate): > 100 µM | GI50 (HCT-116 colon): 45.3 µM | TGI (HCT-116 colon): > 100 µM | GI50 (T-47D breast): 47.4 µM | TGI (T-47D breast): > 100 µM | GI50 (MOLT-4 leukemia): 38.1 µM | TGI (MOLT-4 leukemia): > 100 µM | GI50 (HOP-92 NSCLC): 13.9 µM | TGI (HOP-92 NSCLC): 71.5 µM | GI50 (LOX IMVI melanoma): 49.7 µM | TGI (LOX IMVI melanoma): > 100 µM | GI50 (HL-60(TB) leukemia): 29.9 µM | TGI (HL-60(TB) leukemia): > 100 µM | GI50 (IGROV1 ovarian): 46 µM | TGI (IGROV1 ovarian): > 100 µM | GI50 (K-562 leukemia): 34.7 µM | TGI (K-562 leukemia): > 100 µM | GI50 (HS 578T breast): 36.1 µM | TGI (HS 578T breast): > 100 µM | GI50 (SK-OV-3 ovarian): > 100 µM | TGI (SK-OV-3 ovarian): > 100 µM | GI50 (OVCAR-8 ovarian): 52.8 µM | TGI (OVCAR-8 ovarian): > 100 µM | GI50 (SF-539 CNS): 77.7 µM | TGI (SF-539 CNS): > 100 µM | GI50 (CCRF-CEM leukemia): 54.8 µM | TGI (CCRF-CEM leukemia): > 100 µM | GI50 (MDA-MB-231 breast): 36.1 µM | TGI (MDA-MB-231 breast): > 100 µM | GI50 (RPMI-8226 leukemia): 31.4 µM | TGI (RPMI-8226 leukemia): > 100 µM | GI50 (M14 melanoma): 53 µM | TGI (M14 melanoma): > 100 µM | GI50 (SK-MEL-28 melanoma): > 100 µM | TGI (SK-MEL-28 melanoma): > 100 µM | GI50 (HCC-2998 colon): 64.7 µM | TGI (HCC-2998 colon): > 100 µM | GI50 (TK-10 renal): 90.9 µM | TGI (TK-10 renal): > 100 µM | GI50 (BT-549 breast): 35.8 µM | TGI (BT-549 breast): > 100 µM
